Experimental data reported in patent US20240317727A1 (Duke University, priority 2018, published 2024).

What was measured:
[1] = test system: C4-2 malignant prostate cancer cells vs BPH-1 non-tumorigenic prostate cells; test: AlamarBlue cell viability, C4-2 vs BPH-1; assay type: cell-based, human; conditions: 96 hours, AlamarBlue assay, FIG. 6A
Experimental: The cells were treated for 96 hours with the indicated concentrations of the compounds of the disclosure and cell viability was measured with the AlamarBlue assay. FIG. 6B illustrates the results of Compound 0017 used in a 7-week Maximal Tolerated Dose (MTD) study conducted in mice (3 mice identified as 118, 119 and 120). […] After sacrificing the mice on the last day of the administration, mouse liver and heart tissue was isolated, messenger RNA extracted and the transcript abundance of the HSF1 target gene, Hsp70, was evaluated by qRT-PCR relative to the internal RNA control, GAPDH. The results of the vehicle-treated versus Compound 0017-treated experiments were compared.
Based on the chemical structure of Compound 0017 and its activity, and of other HSF1-interacting chemicals identified in the screen, additional derivatives were designed, synthesized and evaluated for binding to HSF1 and preferential inhibition of metastatic prostate cancer cells (C4-2) versus benign prostate cells (BPH-1).

[2] = 7-week Maximal Tolerated Dose (MTD) study in mice; assay type: in vivo; conditions: 25 mpk three times per week, intra-peritoneal, 7 weeks
[3] = test system: cancer cell lines in the NCI60 collection; test: NCI60 collection, cell growth and viability (overall); assay type: cell-based; conditions: incubated for two days, FIG. 8
Experimental: FIG. 8 is a graph showing the compounds of the disclosure suppress the growth of a broad range of cancer types. […] The cancer origins of the different cell lines are indicated with different colors.
HSF1 binding compounds were tested for its activity in suppressing the growth of a broad range of cancer types. For example, Compound 0017 was incubated for two days with a diverse series of cancer cell lines in the NCI60 collection and cell growth and viability were measured, and the results are shown in Table 4.

CCRF-CEM = test: NCI60 cell growth and viability: CCRF-CEM; assay type: cell-based; conditions: Leukemia, two days
HL-60(TB) = test: cells; assay type: cell-based; conditions: Leukemia, two days
RPMI-8226 = test: NCI60 cell growth and viability: RPMI-8226; assay type: cell-based; conditions: RPMI-8226, Leukemia, two days
SR = test: NCI60 cell growth and viability: SR; assay type: cell-based; conditions: Leukemia, two days
EKVX = test: NCI60 cell growth and viability: EKVX; assay type: cell-based; conditions: Non-Small Cell Lung Cancer, two days
COLO 205 = test: NCI60 cell growth and viability: COLO 205; assay type: cell-based; conditions: COLO 205, Colon Cancer, two days
HCT-116 = test: NCI60 cell growth and viability: HCT-116; assay type: cell-based; conditions: HCT-116, Colon Cancer, two days
U251 = test: NCI60 cell growth and viability: U251; assay type: cell-based; conditions: U251, CNS Cancer, two days
MALME-3M = test: NCI60 cell growth and viability: MALME-3M; assay type: cell-based; conditions: Melanoma, two days
M14 = test: NCI60 cell growth and viability: M14; assay type: cell-based; conditions: M14, Melanoma, two days
SK-MEL-5 = test: NCI60 cell growth and viability: SK-MEL-5; assay type: cell-based; conditions: SK-MEL-5, Melanoma, two days
UACC-62 = test: NCI60 cell growth and viability: UACC-62; assay type: cell-based; conditions: UACC-62, Melanoma, two days
OVCAR-5 = test: NCI60 cell growth and viability: OVCAR-5; assay type: cell-based; conditions: OVCAR-5, Ovarian Cancer, two days
786-0 = test: NCI60 cell growth and viability: 786-0; assay type: cell-based; conditions: 786-0, Renal Cancer, two days
ACHN = test: NCI60 cell growth and viability: ACHN; assay type: cell-based; conditions: Renal Cancer, two days
SN12C = test: NCI60 cell growth and viability: SN12C; assay type: cell-based; conditions: Renal Cancer, two days
MCF7 = test: NCI60 cell growth and viability: MCF7; assay type: cell-based; conditions: MCF7, Breast Cancer, two days
MDA-MB-468 = test: NCI60 cell growth and viability: MDA-MB-468
[4] = Homo sapiens, 48 h, read-out: log10 [GI50 (M)] (converted)
[5] = Homo sapiens, 48 h, read-out: log10 [LC50 (M)] (converted)

O=C(Nc1ccc(F)cc1)Nc1ccc(Cl)c([N+](=O)[O-])c1 [Compound 0017, 1-(4-chloro-3-nitrophenyl)-3-(4-fluorophenyl)urea]
viability of C4-2 compared to BPH-1 [1]: preferentially inhibit the viability
tolerability [2]: well tolerated
growth of a broad range of cancer cells [3]: inhibited the growth of a broad range of cancer cells
GI50 (CCRF-CEM; [4]): 3.31e-06 M
CC50 (CCRF-CEM; [5]): ≥ 0.0001 M
log10 [TGI (M)] (CCRF-CEM): −4.00 log10 M
GI50 (HL-60(TB); [4]): 2.51e-06 M
CC50 (HL-60(TB); [5]): ≥ 0.0001 M
log10 [TGI (M)] (HL-60(TB)): −5.07 log10 M
GI50 (RPMI-8226; [4]): 1.91e-06 M
CC50 (RPMI-8226; [5]): ≥ 0.0001 M
log10 [TGI (M)] (RPMI-8226): −5.07 log10 M
GI50 (SR; [4]): 3.39e-06 M
CC50 (SR; [5]): ≥ 0.0001 M
log10 [TGI (M)] (SR): −4.00 log10 M
GI50 (EKVX; [4]): 2.82e-06 M
CC50 (EKVX; [5]): 6.17e-05 M
log10 [TGI (M)] (EKVX): −4.96 log10 M
log10 [TGI (M)] (COLO 205): −5.20 log10 M
GI50 (COLO 205; [4]): 2.45e-06 M
CC50 (COLO 205; [5]): 3.47e-05 M
log10 [TGI (M)] (HCT-116): −4.93 log10 M
GI50 (HCT-116; [4]): 3.09e-06 M
CC50 (HCT-116; [5]): 3.47e-05 M
GI50 (U251; Homo sapiens, U-251, 48 h, read-out: log10 [GI50 (M)] (converted)): 3.16e-06 M
CC50 (U251; Homo sapiens, U-251, 48 h, read-out: log10 [LC50 (M)] (converted)): 4.37e-05 M
log10 [TGI (M)] (U251): −4.90 log10 M
GI50 (MALME-3M; [4]): 2.34e-06 M
CC50 (MALME-3M; [5]): 2.95e-05 M
log10 [TGI (M)] (MALME-3M): −5.14 log10 M
GI50 (M14; [4]): 3.16e-06 M
CC50 (M14; [5]): 3.8e-05 M
log10 [TGI (M)] (M14): −4.91 log10 M
GI50 (SK-MEL-5; [4]): 1.78e-06 M
CC50 (SK-MEL-5; [5]): 5.89e-06 M
log10 [TGI (M)] (SK-MEL-5): −5.49 log10 M
GI50 (UACC-62; [4]): 3.02e-06 M
CC50 (UACC-62; [5]): 3.63e-05 M
log10 [TGI (M)] (UACC-62): −4.88 log10 M
GI50 (OVCAR-5; [4]): 3.55e-06 M
CC50 (OVCAR-5; [5]): 6.46e-05 M
log10 [TGI (M)] (OVCAR-5): −4.83 log10 M
log10 [TGI (M)] (786-0): −4.88 log10 M
GI50 (786-0; [4]): 3.39e-06 M
CC50 (786-0; [5]): 3.8e-05 M
GI50 (ACHN; [4]): 2.95e-06 M
CC50 (ACHN; [5]): 6.03e-05 M
log10 [TGI (M)] (ACHN): −4.96 log10 M
GI50 (SN12C; [4]): 2.95e-06 M
CC50 (SN12C; [5]): 4.27e-05 M
log10 [TGI (M)] (SN12C): −4.93 log10 M
GI50 (MCF7; [4]): 2.63e-06 M
CC50 (MCF7; [5]): 7.08e-05 M
log10 [TGI (M)] (MCF7): −4.92 log10 M
GI50 (MDA-MB-468; Homo sapiens, MDA-MB-468, 48 h, read-out: log10 [GI50 (M)] (converted)): 2.14e-06 M
CC50 (MDA-MB-468; Homo sapiens, MDA-MB-468, 48 h, read-out: log10 [LC50 (M)] (converted)): 3.55e-05 M
log10 [TGI (M)] (MDA-MB-468; MDA-MB-468, Breast Cancer, two days): −5.12 log10 M
